In patent publication US11542497B2, “Method for evaluating multiple different genes of interest” (THE UNIVERSITY OF TOKYO, priority 2017, dated 2023):

What was measured:
[1] = system: DLD1 BRCA2 (−/−) line with introduced BRCA2 mutations; test: MANO-B method, Clinvar BRCA2 mutations, olaparib 1 μM (Example 8, FIG. 9); assay type: cell-based
Description: (§1) First, 3 different unique bar code sequences were added (to conduct experiments at n=3) to each of 11 different plasmids including: plasmids having wild-type BRCA2, K2729N mutation (benign), D2723H mutation (pathogenic), and 7 truncate variants in which a stop codon is introduced about every 500 amino acids (K485*, L997*, Q1502*, K1984*, C2535*, W2970*, C3304*); and piggyBac empty vector (System Biosciences, LLC). Accordingly, the total of 33 different plasmids were prepared. DLD1 BRCA2 (−/−) line was transfected with each plasmid and a transposase expression plasmid pCMV-hyPBase (Sanger Institute) in accordance with the manufacturer's protocol. In this way, cells having BRCA genes stably introduced in their genome were prepared.
(§2) Different cell lines having mutated genes tagged with bar code sequences introduced were mixed in equal numbers. At this time point, genomic DNA was once extracted (Day 0). Here, a PARP inhibitor (olaparib) was given at varied concentrations and then cultured. Genomic DNA was extracted from the cells collected at Day 12 and was used as a template to PCR-amplify each bar code sequence. After that, deep-sequencing was performed with a next-generation sequencer. The effects of each mutation on the drug sensitivity and the cell proliferation potential were assessed from a change in the ratio of bar code read counts between the case of no chemical treatment and the case of chemical treatment.
Mutations registered at the Clinvar (https://www.ncbi.nlm.nih.gov/clinvar/) (18 kinds of benign mutation, 52 mutations of VUS or with conflicting interpretations, and 8 kinds of malignant mutation) were evaluated by the MANO-B method using the same procedure as of Example 7 (except that olaparib was used at 1 μM). As a result, most of the benign mutations or malignant mutations registered at the Clinvar were determined to be likewise benign or malignant, respectively, by the MANO-B method (data not shown).

[2] = system: DLD1 BRCA2 (−/−) line with introduced BRCA2 variants; test: MANO-B method, olaparib at varied concentrations (Example 7); assay type: cell-based; details: for relative read count (no chemical = 1): Day 12, average of n=3
Description: as §1, §2
The results were normalized while the read count when no chemical was given was set to 1.
When functional BRCA2 is introduced into cells, homologous recombination-mediated repair function is restored, and thus the sensitivity to the drug, a PARP inhibitor, decreases and the cells become resistant to the inhibitor. By contrast, cells having a function-deficient BRCA2 introduced are sensitive to the PARP inhibitor, so that the relative cell count decreases when the PARP inhibitor is added. Based on such criteria, the function of each mutated BRCA2 was examined. […] Thus, the mutation was determined to be a function-preserving, benign mutation, which is consistent with past reports.

## O=C(c1cc(Cc2n[nH]c(=O)c3ccccc23)ccc1F)N1CCN(C(=O)C2CC2)CC1 [olaparib]
[1]; 5 mutants: D2913H, P2639L, S3291C, D23V, and I2664M
  MANO-B group of VUS / conflicting-interpretation BRCA2 mutations: impossible-to-determine (the thresholds were set to 0.1 and 0.5 and the mutations were grouped into 3 groups of benign, malignant, and impossible-to-determine mutations)
[1]; 9 mutants: R2659G, N3124I, L2604P, W31C, E2663K, W2626R, D3073G, G2609D, and P2329L
  MANO-B group of VUS / conflicting-interpretation BRCA2 mutations: malignant (the thresholds were set to 0.1 and 0.5 and the mutations were grouped into 3 groups of benign, malignant, and impossible-to-determine mutations)
[1]; 38 mutants: R2896C, A2643G, S142N, N854S, Y42C, G602V, T3387A, T2412A, E3096K, E2020K, S3319F, V1532F, E747G, S2697N, K2411T, P3054S, Q147R, S445Y, S755C, Y600C, K2075N, V159E, P41L, H595Y, F266L, R3385H, T2337A, I2627V, I1167V, N55S, V208G, P3292L, S1074C, T598A, T2071, R324T, A2911V, E1695V
  MANO-B group of VUS / conflicting-interpretation BRCA2 mutations: benign (the thresholds were set to 0.1 and 0.5 and the mutations were grouped into 3 groups of benign, malignant, and impossible-to-determine mutations)
[1]; BRCA2 G2724W
  MANO-B score, highest score of the malignant mutations: 0.03839
[1]; BRCA2 N2436I
  MANO-B score, lowest score of the benign mutations: 0.7386
[2]; BRCA2 C2535*, olaparib 1 nM
  relative read count (no chemical = 1): 0.94
[2]; BRCA2 C2535*, olaparib 5 nM
  relative read count (no chemical = 1): 0.78
[2]; BRCA2 C2535*, olaparib 10 nM
  relative read count (no chemical = 1): 0.77
[2]; BRCA2 C2535*, olaparib 50 nM
  relative read count (no chemical = 1): 0.4
[2]; BRCA2 C2535*, olaparib 100 nM
  relative read count (no chemical = 1): 0.27
[2]; BRCA2 C2535*, olaparib 500 nM
  relative read count (no chemical = 1): 0.08
[2]; BRCA2 C2535*, olaparib 1 μM
  relative read count (no chemical = 1): 0.05
[2]; BRCA2 C3304*, olaparib 1 nM
  relative read count (no chemical = 1): 0.98
[2]; BRCA2 C3304*, olaparib 5 nM
  relative read count (no chemical = 1): 1.14
[2]; BRCA2 C3304*, olaparib 10 nM
  relative read count (no chemical = 1): 1.17
[2]; BRCA2 C3304*, olaparib 50 nM
  relative read count (no chemical = 1): 0.94
[2]; BRCA2 C3304*, olaparib 100 nM
  relative read count (no chemical = 1): 0.69
[2]; BRCA2 C3304*, olaparib 500 nM
  relative read count (no chemical = 1): 0.3
[2]; BRCA2 C3304*, olaparib 1 μM
  relative read count (no chemical = 1): 0.29
[2]; BRCA2 D2723H
  resistance of BRCA2 D2723H mutant to the PARP inhibitor: did not exhibit resistance
[2]; BRCA2 D2723H, olaparib 1 nM
  relative read count (no chemical = 1): 0.97
[2]; BRCA2 D2723H, olaparib 5 nM
  relative read count (no chemical = 1): 0.76
[2]; BRCA2 D2723H, olaparib 10 nM
  relative read count (no chemical = 1): 0.67
[2]; BRCA2 D2723H, olaparib 50 nM
  relative read count (no chemical = 1): 0.34
[2]; BRCA2 D2723H, olaparib 100 nM
  relative read count (no chemical = 1): 0.18
[2]; BRCA2 D2723H, olaparib 500 nM
  relative read count (no chemical = 1): 0.07
[2]; BRCA2 D2723H, olaparib 1 μM
  relative read count (no chemical = 1): 0.07
[2]; BRCA2 K485*, olaparib 1 nM
  relative read count (no chemical = 1): 0.79
[2]; BRCA2 K485*, olaparib 5 nM
  relative read count (no chemical = 1): 0.66
[2]; BRCA2 K485*, olaparib 10 nM
  relative read count (no chemical = 1): 0.54
[2]; BRCA2 K485*, olaparib 50 nM
  relative read count (no chemical = 1): 0.26
[2]; BRCA2 K485*, olaparib 100 nM
  relative read count (no chemical = 1): 0.15
[2]; BRCA2 K485*, olaparib 500 nM
  relative read count (no chemical = 1): 0.06
[2]; BRCA2 K485*, olaparib 1 μM
  relative read count (no chemical = 1): 0.05
[2]; BRCA2 K1984*, olaparib 1 nM
  relative read count (no chemical = 1): 0.94
[2]; BRCA2 K1984*, olaparib 5 nM
  relative read count (no chemical = 1): 0.84
[2]; BRCA2 K1984*, olaparib 10 nM
  relative read count (no chemical = 1): 0.77
[2]; BRCA2 K1984*, olaparib 50 nM
  relative read count (no chemical = 1): 0.36
[2]; BRCA2 K1984*, olaparib 100 nM
  relative read count (no chemical = 1): 0.25
[2]; BRCA2 K1984*, olaparib 500 nM
  relative read count (no chemical = 1): 0.08
[2]; BRCA2 K1984*, olaparib 1 μM
  relative read count (no chemical = 1): 0.05
[2]; BRCA2 K2729N
  resistance of BRCA2 K2729N mutant to the PARP inhibitor compared with the wild-type: substantially the same resistance
[2]; BRCA2 K2729N, olaparib 1 nM
  relative read count (no chemical = 1): 1.08
[2]; BRCA2 K2729N, olaparib 5 nM
  relative read count (no chemical = 1): 1.58
[2]; BRCA2 K2729N, olaparib 10 nM
  relative read count (no chemical = 1): 1.36
[2]; BRCA2 K2729N, olaparib 50 nM
  relative read count (no chemical = 1): 1.74
[2]; BRCA2 K2729N, olaparib 100 nM
  relative read count (no chemical = 1): 2.31
[2]; BRCA2 K2729N, olaparib 500 nM
  relative read count (no chemical = 1): 4.76
[2]; BRCA2 K2729N, olaparib 1 μM
  relative read count (no chemical = 1): 3.72
[2]; BRCA2 L997*, olaparib 1 nM
  relative read count (no chemical = 1): 0.85
[2]; BRCA2 L997*, olaparib 5 nM
  relative read count (no chemical = 1): 0.71
[2]; BRCA2 L997*, olaparib 10 nM
  relative read count (no chemical = 1): 0.54
[2]; BRCA2 L997*, olaparib 50 nM
  relative read count (no chemical = 1): 0.24
[2]; BRCA2 L997*, olaparib 100 nM
  relative read count (no chemical = 1): 0.13
[2]; BRCA2 L997*, olaparib 500 nM
  relative read count (no chemical = 1): 0.06
[2]; BRCA2 L997*, olaparib 1 μM
  relative read count (no chemical = 1): 0.07
[2]; BRCA2 Q1502*, olaparib 1 nM
  relative read count (no chemical = 1): 1
[2]; BRCA2 Q1502*, olaparib 5 nM
  relative read count (no chemical = 1): 0.88
[2]; BRCA2 Q1502*, olaparib 10 nM
  relative read count (no chemical = 1): 0.78
[2]; BRCA2 Q1502*, olaparib 50 nM
  relative read count (no chemical = 1): 0.43
[2]; BRCA2 Q1502*, olaparib 100 nM
  relative read count (no chemical = 1): 0.24
[2]; BRCA2 Q1502*, olaparib 500 nM
  relative read count (no chemical = 1): 0.12
[2]; BRCA2 Q1502*, olaparib 1 μM
  relative read count (no chemical = 1): 0.07
[2]; BRCA2 W2970*, olaparib 1 nM
  relative read count (no chemical = 1): 0.97
[2]; BRCA2 W2970*, olaparib 5 nM
  relative read count (no chemical = 1): 0.93
[2]; BRCA2 W2970*, olaparib 10 nM
  relative read count (no chemical = 1): 0.75
[2]; BRCA2 W2970*, olaparib 50 nM
  relative read count (no chemical = 1): 0.45
[2]; BRCA2 W2970*, olaparib 100 nM
  relative read count (no chemical = 1): 0.22
[2]; BRCA2 W2970*, olaparib 500 nM
  relative read count (no chemical = 1): 0.09
[2]; BRCA2 W2970*, olaparib 1 μM
  relative read count (no chemical = 1): 0.07
[2]; BRCA2 wild type, olaparib 1 nM
  relative read count (no chemical = 1): 1.22
[2]; BRCA2 wild type, olaparib 5 nM
  relative read count (no chemical = 1): 1.52
[2]; BRCA2 wild type, olaparib 10 nM
  relative read count (no chemical = 1): 1.92
[2]; BRCA2 wild type, olaparib 50 nM
  relative read count (no chemical = 1): 3.19
[2]; BRCA2 wild type, olaparib 100 nM
  relative read count (no chemical = 1): 3.82
[2]; BRCA2 wild type, olaparib 500 nM
  relative read count (no chemical = 1): 4.2
[2]; BRCA2 wild type, olaparib 1 μM
  relative read count (no chemical = 1): 4.42
[2]; Empty vector, olaparib 1 nM
  relative read count (no chemical = 1): 0.98
[2]; Empty vector, olaparib 5 nM
  relative read count (no chemical = 1): 0.82
[2]; Empty vector, olaparib 10 nM
  relative read count (no chemical = 1): 0.69
[2]; Empty vector, olaparib 50 nM
  relative read count (no chemical = 1): 0.38
[2]; Empty vector, olaparib 100 nM
  relative read count (no chemical = 1): 0.21
[2]; Empty vector, olaparib 500 nM
  relative read count (no chemical = 1): 0.07
[2]; Empty vector, olaparib 1 μM
  relative read count (no chemical = 1): 0.05
